Data from patent US11220548B2, “Treatment of C1013G/CXCR4-associated Waldenstrom's macroglobulinemia with an anti-CXCR4 antibody” (BRISTOL-MYERS SQUIBB COMPANY, priority 2013, dated 2022).

Key:
[1] = system: C1013G/CXCR4-WM cell lines (BCWM1; MWCL1); test: Cytotoxicity (MTT) of anti-WM agents, 48 h exposure; assay type: cell-based, human; conditions: vs control vector-infected cells
Text: FIGS. 13A and 13B show GSEA enrichment plots of multiple drug resistance and response to drug signature genes in C1013G/CXCR4-mutated cells and control vector-infected cells (control cells), respectively. The plotted curves show the enrichment score and reflect the degree to which each gene (vertical lines) is represented at the top or bottom of the ranked gene list. The heat map indicates the relative abundance (left to right) of the genes specifically enriched in the mutated cells as compared with the control cells. Gene sets were considered enriched with a FDR always <0.25. Normalized enrichments score (NES) and FDR are shown per each gene set analyzed. FIGS. 13C-13G show the effects on C1013G/CXCR4-WM cell lines (BCWM1; MWCL1) or control vector-infected cells (control) exposed to everolimus, ibrutinib, idelalisib, bortezomib, and carfilzomib for 48 h.
Everolimus, idelalisib, ibrutinib, bortezomib, and carfilzomib were purchased from Selleck Chemicals (Houston, Tex.). Drugs were dissolved in dimethylsulfoxide and subsequently diluted in cell culture medium (10% fetal bovine serum) immediately before use.

WM cells [2] = conditions: cited from earlier work
WM cells [3] = conditions: cited from earlier work; remark: listed apart in the source
BCWM.1-mCherry+ cells = test: In vivo homing and tumor progression of wild-type WM cells; parameters: species or system SCID/Bg mice; conditions: human IgM ELISA at end of study; P<0.05
Experimental: Serum was collected at the end of the study. […] Cell toxicity was performed by MTT. […] Bars indicate standard deviation.
Human serum IgM levels were determined by using a human IgM ELISA assay (ZeptoMetrix, Buffalo, N.Y.), according to the manufacturer's protocol.
SCID/Bg mice (n=5/group) were injected with BCWM.1 infected with either precision LentiORF/CXCR4/GFP (CXCR4^+)- or empty vector probe/RFP (control)-infected BCWM.1 cells. After three weeks, mice were euthanized and organs harvested. Hematoxylin-eosin staining, immunohistochemistry for human-CD20 and -CXCR4 were performed on explanted organs. Independent experiments were conducted to evaluate differences in survival (SCID/Bg mice, n=7/group). Similar studies were conducted using […]/CXCR4-mutated cells and control vector-infected cells (control cells). In vivo homing studies were performed using BCWM.1-mCherry^+ cells: cells were injected intravenously into […] mice and treated with either BMS-936564 or control antibody (10 mg/kg, intraperitoneally; 3-4 times per week for 3 weeks). The ability of BMS-936564 to modulate WM homing to BM, spleen and lymph nodes was evaluated ex vivo at the third week on explanted tissues, by using a fluorescence microscope (Nikon Eclipse 80i, Melville, N.Y.) (Roccaro et al., 2013).
The anti-WM activity of BMS-936564 was also tested in vivo using wild-type WM cells. BCWM.1-mCherry^+ cells were injected intravenously into SCID/Bg mice and treated mice with either BMS-936564 or control antibody.
As CXCR4 inhibition is thought to induce stem cell and tumor cell mobilization, it was hypothesized that BMS-936564 may also induce mobilization of WM cells leading to increased chemosensitivity to anti-WM agents. Accordingly, the effect of BMS-936564 in modulating tumor progression and WM cell dissemination to distant BM niches in vivo was evaluated as monotherapy or in combination with bortezomib.

Row | SMILES | sensitivity of C1013G/CXCR4-mutated WM cells compared with unmutated control cells [1] | migration of WM cells (WM cells [2]) | adhesion of WM cells to fibronectin, stromal cells, and endothelial cells (WM cells [3]) | serum IgM levels (BCWM.1-mCherry+ cells)
1 | CC[C@H](Nc1ncnc2[nH]cnc12)c1nc2cccc(F)c2c(=O)n1-c1ccccc1 [idelalisib] | resistance |  |  | 
2 | CC(C)C[C@H](NC(=O)[C@H](CCc1ccccc1)NC(=O)CN1CCOCC1)C(=O)N[C@@H](Cc1ccccc1)C(=O)N[C@@H](CC(C)C)C(=O)[C@@]1(C)CO1 [carfilzomib] | equally sensitive |  |  | 
3 | c1cc(CN2CCCNCCNCCCNCC2)ccc1CN1CCCNCCNCCCNCC1 [AMD3100, plerixafor] |  | significantly inhibit | significantly inhibit | 
4 | CC(C)C[C@H](NC(=O)[C@H](Cc1ccccc1)NC(=O)c1cnccn1)B(O)O [bortezomib, reference compound] | equally sensitive |  |  | significantly reduced
5 | CO[C@H]1C[C@@H]2CC[C@@H](C)[C@@](O)(O2)C(=O)C(=O)N2CCCC[C@H]2C(=O)O[C@H]([C@H](C)C[C@@H]2CC[C@@H](OCCO)[C@H](OC)C2)CC(=O)[C@H](C)/C=C(\C)[C@@H](O)[C@@H](OC)C(=O)[C@H](C)C[C@H](C)/C=C/C=C/C=C/1C [everolimus] | resistance |  |  | 
